For one assay, the system named is Plasmodium berghei. The experiment in a line: Antimalarial activity against liver stage of Plasmodium berghei ANKA harboring luciferase gene infected in human HepG2 cells pretreated for 1 hr followed by parasite infection measured after […] by Bright-Glo luminescence assay. The format is functional, cell-based.
Assay [1] concerns Mycobacterium tuberculosis H37Rv. Put plainly: Inhibition of Mycobacterium tuberculosis H37Rv Chorismate mutase at 30 uM relative to control.
Assay [2] is described as follows: Inhibition of Mycobacterium tuberculosis H37Rv Chorismate mutase.

Each structure is given as a SMILES string.

On to `CCN(CC)CCN1C(=O)c2ccccc2NC1c1ccc(Cl)cc1` (centres undefined), for which the EC50 in the assay on Plasmodium berghei was determined as 1.4 µM.
For the compound `O=C1NC2(CCCCCC2)Nc2ccccc21`, in assay [1], the inhibition fell in the range of 30 to 35%.
`O=C1NC2(Cc3ccccc3C2)Nc2ccc(I)cc21` yielded an inhibition in assay [1] of 30 to 35%.
Compound `COc1cc(CCNc2c([N+](=O)[O-])cc(C(=O)O)cc2S(N)(=O)=O)cc(OC)c1` showed a half-maximal inhibitory concentration (IC50) in assay [2] of under 10 µM.

Values taken from ChEMBL document CHEMBL4038261, “Synthetic strategy with representation on mechanistic pathway for the therapeutic applications of dihydroquinazolinones” (Eur J Med Chem, 2016).
